Measured values as given in article PMC6373163, “Potential in vitro anti-allergic, anti-inflammatory and cytotoxic activities of ethanolic extract of Baliospermum montanum root, its major components and a validated HPLC method” (BMC Complementary and Alternative Medicine, 2019).
Values after ≈ are worked out from the molar mass of the structure shown. Values belong to the molecule of their own block, whether it stands above or below them.

What was measured:
[1] = test system: β-hexosaminidase released from RBL-2H3 cells; assay: Inhibition of β-hexosaminidase release from IgE-sensitized, DNP-BSA-stimulated RBL-2H3 cells (anti-allergic activity); type: cell-based; conditions: Rattus norvegicus, 100 μg/ml, mean ± SD, triplicate
[2] = test system: β-hexosaminidase released from RBL-2H3 cells; assay: as above; type: cell-based, rat; conditions: for inhibition at 1 µg/mL / inhibition at 10 µg/mL / inhibition at 50 µg/mL / IC50 / inhibition at 0.1 µg/mL: Rattus norvegicus, mean ± SD, triplicate; for inhibition at 1 µg/mL: 1 μg/ml; for inhibition at 10 µg/mL: 10 μg/ml; for inhibition at 50 µg/mL: 50 μg/ml; for inhibition at 0.1 µg/mL: 0.1 μg/ml
Experimental: Inhibitory activity on β-hexosaminidase released from rat basophilic leukemia cells (RBL-2H3) was evaluated following the report of Juckmetha and co-workers. RBL-2H3 cells were cultured in MEM supplemented with 15% FBS, penicillin/streptomycin (each 100 μg/mL). Cells were seeded in 24-well plate with the concentration of 5 × 10^5 cells/well and incubated in 5% CO2 at 37 °C for 1.5 h. RBL-2H3 were sensitized with 0.45 μg/mL of Anti-DNP IgE and incubated at 37 °C in 5% CO2 for 24 h. Cells were then washed with 400 μL of Siraganian buffer (Buffer A) [119 mM NaCl, 5 mM KCl, 5.6 mM glucose, 0.4 mM MgCl2, 1 mM CaCl2, 25 mM piperazine-N,N′-bis (2-ethanesulfonic acid) (PIPES), 0.1% BSA, and 40 mM NaOH, pH 7.2]. Subsequently, 160 μL of buffer A was added into the wells and incubated at 37 °C for 10 min. The stock solution of the sample was diluted in DMSO and the working samples were diluted with buffer A. The concentrations of the working samples were 0.1 μg/mL, 1 μg/mL, 10 μg/mL and 50 μg/mL. The serially diluted samples (20 μL) were added to each well and incubated for 10 min. The reaction of antigen-antibody was obtained by adding 20 μL of antigen (DNP-BSA) to produce a final concentration of 10 μg/mL and incubated at 37 °C for 20 min. The amount of β-hexosaminidase released from the degranulation was determined by adding 50 μL of the substrate, PNAG (1 mM in 0.1 M citrate buffer, pH 4.5). The enzyme reaction was stopped by adding 200 μL of 0.1 M carbonate buffer pH 10.0. The product of enzyme reaction, p-nitrophenol, was analyzed by measuring absorbance at wavelength 405 nm. Chlorpheniramine was used as positive control. The percentage of inhibition was calculated by the following equation. Inhibition%=1−T−B−N/C−B−N×100
Where • C = Optical density of control: [+] DNP-BSA, [−] Test sample; • T = Optical density of test sample: [+] DNP-BSA, [+] Test sample; • B = Optical density of blank: […], [+] Test sample; • N = Optical density of normal: [−] DNP-BSA, [−] Test sample.

[3] = Cytotoxic activity by sulforhodamine B (SRB) assay, normal cells HaCaT; type: cell-based; conditions: human, 72 h exposure, 72 h recovery
Experimental: (§1) The crude extracts and isolated compounds were evaluated for cytotoxic activity by using sulforhodamine B (SRB) assay against two cancerous liver cells (HepG2 and KKU-M156) and a normal cells (HaCaT). The SRB protocol has been described previously. HepG2 was cultured in MEM; KKU-M156 was cultured in HAM F-12 media and HaCaT was cultured in DMEM. All cultured media were supplemented with 10% FBS, penicillin/streptomycin (each 100 units/mL). All cells were incubated in 5% CO2 at 37 °C with 95% humidity. Based on the growth curve, each cell was seeded into 96-well plate (100 μL per well) with optimal density (HepG2: 3 × 10^3 cells per well, KKU-M156: 2 × 10^3 cells per well and HaCaT: 8 × 10^3 cells per well). Seeded cells were incubated at 37 °C in a 5% CO2 with 95% humidity for 24 h. Cells were then treated with 100 μL of different concentrations of sample solution (0.1 μg/mL, 1 μg/mL, 10 μg/mL and 50 μg/mL). DMSO at the same concentration as the sample (2% v/v) was used as the control solvent. Cell cultures were incubated for the exposure time of 72 h. After the exposure time, the medium was removed and the plate was washed with 200 μL phosphate buffer saline (PBS) and 200 μL fresh medium was added into each well. The plates were then incubated for 72 h for the recovery period. The cells were then fixed by adding 100 μL of 40% trichloroacetic acid and the plates left at 4 °C for 45 min. After the plates were washed, 50 μL of SRB solution (0.4% w/v in acetic acid) was added into each well and the cells were allowed to be strained for 30 min. The stained cells were dissolved by using 100 μL of 10 mM Tris base pH 10.5. The %inhibition was calculated using the following equation. Inhibition%=ODcontrol‐ODsample/ODcontrol×100

HepG2 = assay: Cytotoxic activity by sulforhodamine B (SRB) assay, HepG2; type: cell-based; conditions: for Selective index: HaCaT versus HepG2; for IC50: Homo sapiens, HepG2, SRB, 72 h exposure, 72 h recovery
Experimental: as §1

[4] = test system: NO production of LPS-induced RAW 264.7 cells; assay: Inhibition of NO production in LPS-induced RAW 264.7 cells (Griess reagent); type: cell-based, murine; conditions: Mus musculus; for inhibition at 0.1 µg/mL: RAW264.7, 0.1 μg/mL; for inhibition at 0.1 µg/mL / inhibition at 1 µg/mL / inhibition at 10 µg/mL / inhibition at 50 µg/mL: mean ± SD, read-out: %Inhibition of LPS-induced nitric oxide release; for inhibition at 1 µg/mL: RAW264.7, 1 μg/mL; for inhibition at 10 µg/mL: RAW264.7, 10 μg/mL; for inhibition at 50 µg/mL: RAW264.7, 50 μg/mL; for IC50: RAW264.7, mean ± SD, triplicate, read-out: IC50, LPS-induced nitric oxide release
Experimental: The inhibitory activity of crude extracts and isolated compounds on NO production of LPS-induced RAW 264.7 cells was investigated according to a previously reported method. RAW 264.7 cells were cultured in RPMI medium supplemented with 10% FBS, penicillin/streptomycin (each 100 units/mL) and incubated at 37 °C in 5% CO2 with 95% humidity. The cells were seeded into 96-well plate (1 × 10^5 cells per well) and incubated for 24 h. Subsequently, the cells were induced by LPS at the final concentration of 2 ng/mL and the serially diluted samples (0.1 μg/mL, 1 μg/mL, 10 μg/mL and 50 μg/mL) were added. The plate was incubated for 24 h before being tested for NO accumulation and cell viability. Prednisolone was used as positive control. The accumulated NO released from the LPS-induced RAW 264.7 cells was determined by using Griess’s reagent (1% sulfanilamide and 0.1% N-(1- naphthyl) ethylenediamine dihydrochloride in 2.5% phosphoric acid). The supernatant in each well (100 μL) was transferred to another 96-well plate and 100 μL of Griess’s reagent was added. The optical density of reaction was measured at 570 nm. The inhibitory activity (%) of NO production was calculated by the following equation and the IC50 values were calculated. Inhibition%=ODcontrol‐ODsample/ODcontrol×100

[5] = Viability of LPS-treated RAW 264.7 cells (MTT); type: cell-based, murine; conditions: mouse
Experimental: The viability of the LPS treated RAW 264.7 cells were colorimetrically determined by using 3-(4, 5-dimethyl-2-thiazolyl)-2, 5-diphenyl-2H-tetrazolium bromide (MTT) method. MTT solution (10 μL) was added into each well and the plate was incubated for 2 h. The remained formazan crystal in each well, after removing the medium, was dissolved by 0.04 M HCl in isopropanol (100 μL). The optical density was measured by using microplate reader at wavelength 570 nm.

KKU-M156 = assay: Cytotoxic activity by sulforhodamine B (SRB) assay, KKU-M156; type: cell-based; conditions: for Selective index: HaCaT versus KKU-M156; for IC50: KKU-M156, SRB, 72 h exposure, 72 h recovery
Experimental: as §1

[6] = test system: NO production of LPS-induced RAW 264.7 cells; assay: Inhibition of NO production in LPS-induced RAW 264.7 cells (Griess reagent); type: cell-based, murine; conditions: Mus musculus, RAW264.7, 0.01 μg/mL, mean ± SD, read-out: %Inhibition of LPS-induced nitric oxide release

SMILES: CN(C)CCC(c1ccc(Cl)cc1)c1ccccn1 (centres unmarked) [Chlorpheniramine, reference compound]
inhibition at 100 µg/mL [1]: 81.3 ± 9.51%
inhibition at 1 µg/mL [2]: 14.9 ± 1.57%
inhibition at 10 µg/mL [2]: 36.2 ± 2.84%
inhibition at 50 µg/mL [2]: 71.4 ± 11%
IC50 [2]: 17.7 ± 1.61 µg/mL

SMILES: CCC(=O)c1ccc(OC)c(OC)c1 [Compound 1, 1-(3′,4′-dimethoxyphenyl) propan-1-one]
IC50 at 72 h [3]: > 100 µg/mL
Selective index (HepG2): > 1.15
IC50 (HepG2): 87.1 ± 1.36 µg/mL (≈ 448 µM)
inhibition at 0.1 µg/mL [4]: 2.66 ± 0.23%
inhibition at 1 µg/mL [4]: 3.91 ± 3.03%
inhibition at 10 µg/mL [4]: 14.4 ± 1.71%
inhibition at 50 µg/mL [4]: 69.2 ± 2.49%
IC50 [4]: 40.4 ± 1.32 µg/mL (≈ 208 µM)
inhibition at 0.1 µg/mL [2]: -7.88 ± 3.01%
inhibition at 1 µg/mL [2]: 4.84 ± 3.46%
inhibition at 10 µg/mL [2]: 29.4 ± 2.01%
inhibition at 50 µg/mL [2]: 77.7 ± 3.6%
IC50 [2]: 21.2 ± 2.01 µg/mL
viability at 0.1 μg/mL [5]: 84.7%
viability at 1 μg/mL [5]: 89.7%
viability at 10 μg/mL [5]: 84.7%
viability at 50 μg/mL [5]: 80.5%
Selective index (KKU-M156): > 1.71
IC50 (KKU-M156): 58.3 ± 5.95 µg/mL (≈ 300 µM)

SMILES: CCC(=O)c1cc(OC)c(OC)cc1O [Compound 3, 1-(2′-hydroxy-4′, 5′-dimethoxyphenyl) propan-1-one]
IC50 at 72 h [3]: > 100 µg/mL
Selective index (HepG2): > 1.11
IC50 (HepG2): 90.3 ± 5.65 µg/mL (≈ 430 µM)
inhibition at 0.1 µg/mL [4]: -0.82 ± 3.26%
inhibition at 1 µg/mL [4]: 2.64 ± 0.31%
inhibition at 10 µg/mL [4]: 14.6 ± 3.43%
inhibition at 50 µg/mL [4]: 34.4 ± 3.07%
IC50 [4]: > 50 µg/mL
inhibition at 0.1 µg/mL [2]: -14.2 ± 5.67%
inhibition at 1 µg/mL [2]: 8.52 ± 2.93%
inhibition at 10 µg/mL [2]: 17.4 ± 5.72%
inhibition at 50 µg/mL [2]: 60.8 ± 8.98%
IC50 [2]: 44.4 ± 7.33 µg/mL
anti-allergic activity (in words) ([2]; judged from IC50): moderate activity
viability at 0.1 μg/mL [5]: 102%
viability at 1 μg/mL [5]: 97%
viability at 10 μg/mL [5]: 97.3%
viability at 50 μg/mL [5]: 91.6%
Selective index (KKU-M156): > 1.20
IC50 (KKU-M156): 83.4 ± 5.2 µg/mL (≈ 397 µM)

SMILES: CC[C@]1(O)C[C@H]2CN(CCc3c([nH]c4ccccc34)[C@@](C(=O)OC)(c3cc4c(cc3OC)N(C=O)[C@H]3[C@@](O)(C(=O)OC)[C@H](OC(C)=O)[C@]5(CC)C=CCN6CC[C@]43[C@@H]65)C2)C1 [Vincristine, reference compound]
IC50 at 72 h [3]: < 0.0001 µg/mL
Selective index (HepG2): < 0.008
IC50 (HepG2): 0.013 ± 0.0006 µg/mL (≈ 0.0158 µM)
Selective index (KKU-M156): < 0.033
IC50 (KKU-M156): 0.003 ± 0.0015 µg/mL (≈ 0.00364 µM)

More lines, main results first:

IC50 [4]: 33.6 ± 5.25 µg/mL (≈ 150 µM)
SMILES: CCC(=O)c1cc(OC)c(OC)c(OC)c1 [Compound 2, 1-(3′,4′,5′-trimethoxyphenyl) propan-1-one]
IC50 at 72 h [3]: > 100 µg/mL
Selective index (HepG2): > 2.10
IC50 (HepG2): 47.6 ± 1.2 µg/mL (≈ 212 µM)
inhibition at 0.1 µg/mL [4]: 7.09 ± 6.86%
inhibition at 1 µg/mL [4]: 11.1 ± 9.89%
inhibition at 10 µg/mL [4]: 8.69 ± 6.93%
inhibition at 50 µg/mL [4]: 58.8 ± 3.59%
inhibition at 0.1 µg/mL [2]: -5.37 ± 2.3%
inhibition at 1 µg/mL [2]: 15.1 ± 1.71%
inhibition at 10 µg/mL [2]: 30.4 ± 6.7%
inhibition at 50 µg/mL [2]: 75.2 ± 6.47%
IC50 [2]: 26.2 ± 6.06 µg/mL
viability at 0.1 μg/mL [5]: 94.5%
viability at 1 μg/mL [5]: 88.8%
viability at 10 μg/mL [5]: 80.8%
viability at 50 μg/mL [5]: 90.4%
Selective index (KKU-M156): > 1.04
IC50 (KKU-M156): 95.65 ± 0.48 µg/mL (≈ 427 µM)

IC50 [4]: 0.11 ± 0.02 µg/mL (≈ 0.305 µM)
SMILES: C[C@]12C=CC(=O)C=C1CC[C@@H]1[C@@H]2[C@@H](O)C[C@@]2(C)[C@H]1CC[C@]2(O)C(=O)CO [Prednisolone, reference compound]
inhibition at 0.01 µg/mL [6]: 19.8 ± 3.43%
inhibition at 0.1 µg/mL [4]: 47.7 ± 6.24%
inhibition at 1 µg/mL [4]: 69.9 ± 3.76%
inhibition at 10 µg/mL [4]: 77.9 ± 8.12%
viability at 0.01 μg/mL ([5]; 0.01 μg/mL): 100%
viability at 0.1 μg/mL [5]: 84.3%
viability at 1 μg/mL [5]: 89.5%
viability at 10 μg/mL [5]: 80.8%
